One assay concerns Acinetobacter baumannii (Ab23). The assay is described as follows: MIC shift assay of antibiotics (broth microdilution). Format: cell-based. Conditions: compound concentration 2 μM; fold shift of colistin MIC; nc = no changeover or no shift. As to the method: Minimum inhibitory concentration (MIC) shift assays were performed to determine if the test compounds could alter the MIC of existing antibacterial drugs (e.g., ciprofloxacin and colistin) for E. coli, Acinetobacter baumannii, Klebsiella pneumoniae, Pseudomonas aeruginosa, and Enterobacter cloacae. The MIC shift assay is based on the standard broth microdilution MIC determination protocol of Wiegand et al, Nat Protoc. 3(2):163-75 (2008), with slight modifications that allow for the screening of up to seven test compounds in a single plate.
On the day before an assay, bacteria were grown overnight in cation-adjusted Mueller Hinton broth (CAMHB; Teknova, Hollister, Calif.) at 37° C. in an orbital shaker and sub-cultured at a 1:200 dilution the following morning. The cells were grown to OD600=0.5 to 0.8 and then diluted to OD600=0.01. From a serial dilution of each antibiotic at (50 μL of 2× concentrated stock solutions) several concentrations were added to the wells of a sterile, transparent round-bottom 96-well plate (Phenix Research Products, Candler, N.C.), and diluted cells (50 μL) were added to the plates for a starting OD600 of 0.005. […] A row of wells lacking test compound but containing the antibiotic was used to determine the MIC of that antibiotic alone. A column of wells lacking both antibiotic and test compound served as a growth control, and an additional column containing only CAMHB was included as a sterile blank control.
The plates were incubated for 18 to 20 h at 37° C. in an orbital shaker, and the cell density (OD600) was determined the following day in a microplate reader (PolarStar Optima, BMG Labtech). The MIC shift was determined by comparing the MIC of the antibiotic alone to the MIC of the antibiotic plus test compound.
Background: In broth dilution the organism is exposed to a series of concentrations in liquid medium.
Take `Cc1cccc2c(NCCCN(C)C)nc(-c3cc(-c4ccncc4)cc(C(F)(F)F)c3)nc12` [compound 336]: the “colistin MIC shift, Ab23 at (compd concentration)” value (“colistin MIC shift, Ab23” for short) is 8-16x.

Regarding `CN(C)CCCNc1nc(-c2cc(-c3ccccc3)cc(C(F)(F)F)c2)nc2c(Cl)cccc12` [compound 340], the “colistin MIC shift, Ab23” value is 8-16x.

Consider `Cc1cccc2c(NCCCN(C)C)nc(-c3cc(-c4ccccc4F)cc(C(F)(F)F)c3)nc12` [compound 341], for which the “colistin MIC shift, Ab23” value was 8-16x.

For the molecule `Cc1cccc2c(NCCCN(C)C)nc(-c3cccc(-c4cc(F)cc(C(F)(F)F)c4)c3)nc12` [compound 344], the “colistin MIC shift, Ab23” value is reported as 8-16x.

Take `Cc1cccc2c(NCCCN(C)C)nc(-c3cc(-c4cncs4)cc(C(F)(F)F)c3)nc12` [compound 346]: the “colistin MIC shift, Ab23” value is on record as 8-16x.

In the case of `Cc1cccc2c(NCCCN3CCCCC3)nc(-c3cc(Br)cc(C(F)(F)F)c3)nc12` [compound 347], the “colistin MIC shift, Ab23” value is 8-16x.

As to `CNCCCN(C)c1nc(-c2cc(-c3ccccc3)cc(C(F)(F)F)c2)nc2c(C)cccc12` [compound 349], the “colistin MIC shift, Ab23” value was 8-16x.

Turning to `CNCCCN(C)c1nc(-c2cccc(-c3cc(F)cc(C(F)(F)F)c3)c2)nc2c(Cl)cccc12` [compound 350], the “colistin MIC shift, Ab23” value is given as 8-16x.

`CN(C)CCCNc1nc(-c2cccc(-c3ccccc3Cl)c2)nc2c(Cl)cccc12` [compound 351]: the “colistin MIC shift, Ab23” value is on record as 8-16x.

As to `CCN(CC)CCCNc1nc(-c2cc(Br)cc(C(F)(F)F)c2)nc2c(C)cccc12` [compound 352], the “colistin MIC shift, Ab23” value was 8-16x.

As to `Cc1cccc2c(NCCCN3CCN(C)CC3)nc(-c3cc(Br)cc(C(F)(F)F)c3)nc12` [compound 354], the “colistin MIC shift, Ab23” value is given as 8-16x.

As for `Cc1cccc2c(NCCCN(C)C)nc(-c3cccc(-c4ccc(C(F)(F)F)c(F)c4)c3)nc12` [compound 355], the “colistin MIC shift, Ab23” value was 8-16x.

As for `CN(C)CC(=O)n1cc(-c2ccc(Cl)c(Cl)c2)c2cc(Cl)ccc21` [compound 362], the “colistin MIC shift, Ab23” value was found to be 16x.

Consider `Clc1ccc(/C=C/c2c[nH]c3ccc(Br)cc23)cc1Cl` [compound 363], for which the “colistin MIC shift, Ab23” value is reported as “≧16x (2 μM)”.

For `Clc1ccc2[nH]cc(/C=C/c3ccc(Cl)c(Cl)c3)c2c1` [compound 365], the “colistin MIC shift, Ab23” value was “≧16x (2 μM)”.

For the molecule `Fc1ccc2c(/C=C/c3cccc(Cl)c3Cl)c[nH]c2c1` [compound 383], the “colistin MIC shift, Ab23” value is reported as “≧16x (2μM)”.

The assay is the same for the next values; noted with them: compound concentration 4 μM; fold shift of colistin MIC; nc = no changeover or no shift.
For `CN(C)CCCNc1nc(/C=C/c2ccc(Cl)c(Cl)c2)nc2c([N+](=O)[O-])cccc12` [compound 302], the “colistin MIC shift, Ab23” value is 16x.

In the case of `CCN(CC)CCCC(C)Nc1nc(/C=C/c2ccc(Cl)c(Cl)c2)nc2c(C)cccc12` (stereo not drawn) [compound 313], the “colistin MIC shift, Ab23” value was 8x.

Regarding `CN(C)CCCN(C)c1nc(/C=C/c2ccc(Cl)c(Cl)c2)nc2cc(Cl)c(Cl)cc12` [compound 327], the “colistin MIC shift, Ab23” value is given as 8-16x.

As to `CN(C)CCCNc1nc(/C=C/c2ccc(F)c(Cl)c2)nc2c(C(F)(F)F)cccc12` [compound 329], the “colistin MIC shift, Ab23” value was 8x.

For `CN(C)CCCNc1nc(/C=C/c2ccc(F)c(F)c2)nc2c(C(F)(F)F)cccc12` [compound 330], the “colistin MIC shift, Ab23” value was 2x.

On to `CN(C)CCCNc1nc(/C=C/c2cc(C(F)(F)F)c(C(F)(F)F)cc2C(F)(F)F)nc2c(C(F)(F)F)cccc12` [compound 331], for which the “colistin MIC shift, Ab23” value is 16x.

Regarding `CN(C)CCCNc1nc(/C=C/c2ccc(F)c(C(F)(F)F)c2)nc2c(C(F)(F)F)cccc12` [compound 332], the “colistin MIC shift, Ab23” value is 16x.

In the case of `CN(C)CCCNc1nc(/C=C/c2cc(Cl)ccc2Cl)nc2c(C(F)(F)F)cccc12` [compound 335], the “colistin MIC shift, Ab23” value was found to be 16x.

Consider `CN(C)CCCn1cc(/C=C/c2ccc(Cl)c(Cl)c2)c2cc(Br)ccc21` [compound 356], for which the “colistin MIC shift, Ab23” value was 16-64x.

In the case of `CN1CCN(CCn2cc(/C=C/c3ccc(Cl)c(Cl)c3)c3ccc(F)cc32)CC1` [compound 357], the “colistin MIC shift, Ab23” value was 4-8x.

For `CN(C)CCCn1cc(-c2ccc(Cl)c(Cl)c2)c2cc(Cl)ccc21` [compound 359], the “colistin MIC shift, Ab23” value worked out at 16x.

Regarding `Clc1ccc(/C=C/c2c[nH]c3ccc(Br)cc23)cc1Cl` [compound 363], the “colistin MIC shift, Ab23” value is recorded as 32-64x (4 μM);.

Regarding `FC(F)(F)c1ccc2c(/C=C/c3ccc(Cl)c(Cl)c3)c[nH]c2c1` [compound 364], the “colistin MIC shift, Ab23” value was 32-64x.

Turning to `Clc1ccc2[nH]cc(/C=C/c3ccc(Cl)c(Cl)c3)c2c1` [compound 365], the “colistin MIC shift, Ab23” value is reported as 16-64x (4 μM);.

Regarding `Fc1ccc2c(/C=C/c3ccc(Cl)c(Cl)c3)c[nH]c2c1` [compound 366], the “colistin MIC shift, Ab23” value is given as 16-32x.

Take `Clc1ccc(/C=C/c2c[nH]c3cc(Br)ccc23)cc1Cl` [compound 367]: the “colistin MIC shift, Ab23” value is reported as 16-32x.

With `Fc1ccc2[nH]cc(/C=C/c3ccc(Cl)c(Cl)c3)c2c1` [compound 368], the “colistin MIC shift, Ab23” value is listed as 16-32x.

As to `FC(F)(F)c1ccc2[nH]cc(/C=C/c3ccc(Cl)c(Cl)c3)c2c1` [compound 369], the “colistin MIC shift, Ab23” value is 32x.

As to `Cc1ccc2[nH]cc(/C=C/c3ccc(Cl)c(Cl)c3)c2c1` [compound 370], the “colistin MIC shift, Ab23” value is recorded as 32x.

As to `FC(F)(F)c1cccc2[nH]cc(/C=C/c3ccc(Cl)c(Cl)c3)c12` [compound 371], the “colistin MIC shift, Ab23” value was 32x.

Consider `Fc1cccc2[nH]cc(/C=C/c3ccc(Cl)c(Cl)c3)c12` [compound 372], for which the “colistin MIC shift, Ab23” value is listed as 8-32x.

In the case of `COc1ccc2[nH]cc(/C=C/c3ccc(Cl)c(Cl)c3)c2c1` [compound 373], the “colistin MIC shift, Ab23” value is reported as 8-16x.

For `Clc1ccc(/C=C/c2c[nH]c3cc(Cl)c(Cl)cc23)cc1Cl` [compound 374], the “colistin MIC shift, Ab23” value was 16x.

As for `N#Cc1ccc2[nH]cc(/C=C/c3ccc(Cl)c(Cl)c3)c2c1` [compound 375], the “colistin MIC shift, Ab23” value came to 2x.

Regarding `Fc1ccc2c(/C=C/c3ccc(Br)c(Br)c3)c[nH]c2c1` [compound 378], the “colistin MIC shift, Ab23” value is on record as 16-32 x.

As for `O=[N+]([O-])c1ccc2[nH]cc(/C=C/c3ccc(Cl)c(Cl)c3)c2c1` [compound 379], the “colistin MIC shift, Ab23” value is listed as 8x.

Take `O=[N+]([O-])c1ccc2[nH]cc(/C=C\c3ccc(Cl)c(Cl)c3)c2c1` [compound 380]: the “colistin MIC shift, Ab23” value is given as 8x.

For `Fc1ccc2c(/C=C/c3cccc(Cl)c3Cl)c[nH]c2c1` [compound 383], the “colistin MIC shift, Ab23” value is listed as 32x (4 μM);.

Still in this assay, the particulars now being: compound concentration 8 μM; fold shift of colistin MIC; nc = no changeover or no shift.
Take `CN(C)CCCn1nc(-c2ccc(Cl)c(Cl)c2)c2ccc(C(F)(F)F)cc21` [559a]: the “colistin MIC shift, Ab23” value is 8x.

As for `CN(C)CC(=O)n1nc(-c2ccc(Cl)c(Cl)c2)c2ccc(C(F)(F)F)cc21` [559b], the “colistin MIC shift, Ab23” value came to 8x.

For the molecule `CN(C)CCn1nc(-c2ccc(Cl)c(Cl)c2)c2ccc(C(F)(F)F)cc21` [559c], the “colistin MIC shift, Ab23” value came out at 2x.

Regarding `CN(C)CCCNc1nc(/C=C/c2ccc(Br)cc2)nc2cc(Cl)ccc12` [compound 301], the “colistin MIC shift, Ab23” value is on record as 8x.
